Molecules are shown by their SMILES.

A short description of this series: gradient 5% acetonitrile 3 min, to 50% in 2 min, to 85% in 15 min, held 3 min, 100 µL/min. The note with it: column: Zorbax Extend-C18 2.1 x 50 mm; eluents: water / acetonitrile, 0.1% formic acid. Summed up: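 Values are retention times taken from adduct peaks that software picked and an analyst inspected. The pure standards were run as mixtures of ~100 molecules on HPLC linked to a quadrupole time-of-flight mass spectrometer, in positive and negative ionization mode. A Zorbax Extend-C18 column (2.1 × 50 mm, 1.8 μm) was used at 100 μL/min with water and acetonitrile, each including 0.1% formic acid.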
The compound `Cc1ccc(-c2nc3ccc(C)cn3c2NC(=O)c2ccc(Cl)cc2)cc1` yielded an RP-LC retention time of 763 s. On to `Cc1ccccc1CNC(=O)C1(C)CCCN(C(=O)Nc2ccc(Br)cc2F)C1` (stereo not given), for which the RP-LC retention time was 869 s. In turn, `Cc1nn(-c2cc(N3CCOCC3)ncn2)c(C)c1CCC(=O)N1CCN(c2ccccn2)CC1` came in with an RP-LC retention time of 618 s.

On to `Cc1nc2ccn(Cc3cccs3)c(=O)c2cc1C(=O)NCC1CCCO1` (stereo not given), for which the RP-LC retention time was 670 s.

In the case of `COc1cc(OC)cc(-c2nc(C3CC(=O)N(c4ccc(C)cc4)C3)no2)c1` (stereo not given), the RP-LC retention time is 1010 s. The compound `O=[N+]([O-])c1cccc(/C=C/c2ccccn2)c1` yielded an RP-LC retention time of 747 s. To `CNC(=O)c1ccc(Nc2c(-c3ccc(OC)cc3)nc3cnccn23)cc1` belongs 643 s; to `Cn1cc(-c2cc3n(n2)CCCN3C(=O)CCC(=O)N2CCN(c3ccccn3)CC2)c2ccccc21`, 621 s. The value for `COc1ccc(S(=O)(=O)NCCc2c[nH]c3ccc(F)cc23)cc1` was 866 s. Compound `COC(=O)c1ccc2c(=O)n(-c3ccc(OC)c(OC)c3)c(N3CCOCC3)nc2c1` displayed an RP-LC retention time of 800 s. For the compound `O=C(O)c1ccccc1-c1nc2ccccc2[nH]1`, the RP-LC retention time stood at 537 s. `Cn1c(NC(=O)c2ccc(S(=O)(=O)N3CCOCC3)cc2)cc(=O)n(C)c1=O` came in with an RP-LC retention time of 612 s.

In turn, `O=C(c1cc(F)ccc1F)N1CCCC2(C1)NC(=O)N(Cc1ccc(Cl)cc1)C2=O` (stereo not given) had an RP-LC retention time of 844 s. The value for `Cc1cccc(Sc2nccnc2N2CCCC(C(=O)NCCCc3ccccc3)C2)c1` (stereo not given) was 1190 s; that for `CC(C)(C)CCN1CCC(F)(c2nc(-c3ccccc3)no2)CC1` was 789 s. Compound `COc1ncc(C(=O)NCc2ccc(Br)cc2)cn1` yielded an RP-LC retention time of 773 s.

As for `Cc1ccc(-c2c(C(F)(F)F)nn3c(N4CCN(c5ccccn5)CC4)cc(C)nc23)cc1`, the RP-LC retention time was 910 s.

`O=C(Cc1ccsc1)Nc1ccc(N2CCN(c3ccccc3)C2=O)nc1` showed an RP-LC retention time of 811 s. The value for `Cn1cnc2cc(CNC(=O)C3CCCC3)ccc21` was 586 s. `CCOC(=O)C1CCN(C(=O)Cc2c(C(=O)O)c(C)cn2CC)CC1` gave an RP-LC retention time of 715 s.

Compound `O=C(NCc1ccc(F)cc1)Nc1ccc2c(c1)CCN2S(=O)(=O)c1ccccc1` showed an RP-LC retention time of 904 s. Turning to `CC(NC(=O)c1ccc(-c2ccsc2)nc1)c1ccc(F)cc1` (stereo not given), the RP-LC retention time amounted to 908 s. The value for `Cc1ccc(NS(=O)(=O)c2cc(-c3[nH]ncc3C(=O)N3CCCC3)oc2C)c(Cl)c1` was 741 s. Compound `CCn1c(C)c(CCC(=O)NC(C)C)c(=O)n2nc(-c3ccccc3)nc12` displayed an RP-LC retention time of 706 s.

`COc1ccc2[nH]c(C(=O)N3CCN(C(=O)Cc4cccs4)CC3)cc2c1` gave an RP-LC retention time of 758 s. Take `O=C(CN1C(=O)NC2(CCCCC2)C1=O)Nc1ccc(F)cc1`: the RP-LC retention time was determined as 731 s. Consider `COc1ccccc1N1CCN(c2cc(SCC(=O)Nc3cc(F)ccc3F)ncn2)CC1`, for which the RP-LC retention time came to 1130 s. As to `O=c1[nH]nc(SC(F)(F)C(F)(F)C(F)(F)F)c(=O)[nH]1`, the RP-LC retention time is 709 s. `CC(=O)c1cccc(NC(=O)Cn2cc3c(n2)CCCCC3)c1`: the RP-LC retention time worked out at 821 s.

As to `Cc1cc(S(=O)(=O)N2CCn3c(nnc3C3CCN(C(C)C)C3)C2)ccc1Cl` (stereo not given), the RP-LC retention time is 637 s. `CCc1noc(NC(C)=O)c1-c1ccc(C)c(S(=O)(=O)NC2CC2)c1` registered an RP-LC retention time of 728 s. `CC(=O)N1CCC(C(=O)Nc2cccc(OCc3nnc(-c4ccccc4)o3)c2)CC1` showed an RP-LC retention time of 716 s.

`CCn1c(=O)c(C(=O)NCc2ccc(C)cc2)nc2cccnc21` displayed an RP-LC retention time of 781 s. Compound `COC(=O)c1ccc(-c2nc3cnccn3c2Nc2ccc3c(c2)OCCO3)cc1` displayed an RP-LC retention time of 813 s. The compound `Cc1cc(=O)n(CC(=O)Nc2cccc(Cl)c2)c(N2CCc3ccccc3C2)n1` yielded an RP-LC retention time of 859 s. The value for `Cc1cc(=O)n(CC(=O)Nc2ccc(F)cc2C)c(N)n1` was 586 s.

Turning to `Cc1ccc2c(C(=O)NCc3cc(F)cc(F)c3)cc(NC(=O)C(C)C)cc2n1`, the RP-LC retention time was determined as 666 s. To `N#Cc1cccc(Cn2cc(S(=O)(=O)N3CCCC3)ccc2=O)c1` belongs 764 s; to `O=C(c1cn2ccnc(-c3ccccc3)c2n1)N1CCN(c2ncccn2)CC1`, 702 s. For the compound `CCCN1CCN(CCNC(=O)C2CCCN(c3ncc(-c4ccccc4)cn3)C2)CC1` (stereo not given), the RP-LC retention time was 639 s. As for `Cc1oc(C2CCN(C(=O)Nc3ccc4c(c3)OCCO4)CC2)nc1C(=O)N(C)C`, the RP-LC retention time came to 675 s. As to `CN1CCN(CC2(O)CCC3(CCN(C(=O)c4ccsc4)CC3)CC2)CC1`, the RP-LC retention time came out at 570 s. `Cc1ccc(C)c(S(=O)(=O)Nc2ccc(Cn3cncn3)cc2)c1` registered an RP-LC retention time of 725 s. Compound `CC(=O)N1CCN(S(=O)(=O)c2ccc3c(c2)OCCCO3)CC1` registered an RP-LC retention time of 641 s.

In turn, `COCCNCc1ccc(-c2cccc(C(F)(F)F)c2)o1` yielded an RP-LC retention time of 662 s. For `CC1=C(c2ccc(Cl)cc2)S(=O)(=O)N=C1N1CCCN(C(=O)CC(C)(C)C)CC1`, the RP-LC retention time amounted to 944 s. In turn, `COc1ccc(Cl)cc1NC(=O)Cn1cccc1-c1nnc(C2CC2)o1` displayed an RP-LC retention time of 972 s. `CCCn1c(=O)c(N2CCC(NC(=O)Nc3cccc(C)c3)CC2)nc2ccccc21` gave an RP-LC retention time of 1030 s. Consider `Cc1cc(S(=O)(=O)N(C)C2CCc3nn(CC4CC4)c(=O)n3CC2)ccc1Cl` (stereo not given), for which the RP-LC retention time came out at 827 s. Compound `O=C(NC1CCCCC1)C1CCN(Cc2noc(-c3ccc(F)cc3)n2)CC1` displayed an RP-LC retention time of 665 s. `CC1=C(c2cccc(Cl)c2)S(=O)(=O)N=C1N1CCC(NC(=O)c2ccoc2)CC1` showed an RP-LC retention time of 799 s. `COc1ccc(-c2c(C)noc2NC(C)=O)cc1S(=O)(=O)Nc1ccc(S(N)(=O)=O)cc1` came in with an RP-LC retention time of 636 s. `COc1ccc2c(c1)C1(CCN(C(=O)c3ccc(C)cc3)C1)C(=O)N2C` (stereo not given) yielded an RP-LC retention time of 785 s.

In the case of `COc1nc2ccccc2nc1N1CCCC(C(=O)NCc2ccc(Cl)cc2)C1` (stereo not given), the RP-LC retention time is 1110 s. Compound `CCNC(=O)c1nc2cccnc2n(C)c1=O` had an RP-LC retention time of 615 s. To `O=C(Cn1ccc2sccc2c1=O)Nc1ccc(Cl)cc1F` belongs 802 s; to `COc1cc(Cl)ccc1-c1nc(-c2ccc3c(c2)ncn3CCC(=O)N2CCCC2)no1`, 786 s; to `COc1ccc(-c2noc(C3CCCN3C(=O)NC3CCCCC3)n2)cc1` (stereo not given), 948 s. The value for `Cc1ccc(NC(=O)Nc2nc(C(=O)Nc3ccc4c(c3)OCO4)cs2)cc1` was 852 s; that for `Cc1cc(C)n(C(C[N+](=O)[O-])c2ccc(Cl)cc2Cl)n1` (stereo not given) was 1110 s; that for `O=C(Cn1c(=O)c2cc(-c3cccs3)nn2c2ncccc21)Nc1ccc(F)cc1` was 870 s. In turn, `COc1ccc(C)cc1NC(=O)Cn1c(N2CCOCC2)nc(C)cc1=O` registered an RP-LC retention time of 719 s. The compound `N#Cc1ccc(-c2nc(C3CC(=O)N(c4ccc(F)cc4)C3)no2)cc1` (stereo not given) showed an RP-LC retention time of 897 s. Consider `COc1ccc2c(c1)C1(CCN(S(=O)(=O)c3ccc(C#N)cc3)C1)C(=O)N2C` (stereo not given), for which the RP-LC retention time was 880 s. On to `O=C(Cn1c(=O)oc2ccc(C(=O)N3CCCC3)cc21)N1CCC(Cc2ccccc2)CC1`, for which the RP-LC retention time came out at 868 s.

As for `CN(C)CC1CCC/C(=C\c2ccc(OC(=O)/C=C/c3ccccc3)cc2)C1=O` (stereo not given), the RP-LC retention time came out at 796 s. In turn, `COCCN1CCC(N2CCCN(S(=O)(=O)c3ccc(C)cc3)CC2)C1=O` (stereo not given) came in with an RP-LC retention time of 591 s. Take `Cc1nnc2c(=O)n(CC(=O)NCc3ccc(F)c(Cl)c3)c3cccnc3n12`: the RP-LC retention time was 723 s. `Cc1ccn2cc(C(=O)N3CCN(c4cccc(Cl)c4)CC3)nc2c1` came in with an RP-LC retention time of 692 s. `CCOC(=O)c1c(S(=O)(=O)N2CCC(C(=O)Nc3ccccc3OC)CC2)c(C)n(CC)c1C`: the RP-LC retention time worked out at 891 s.

`Cc1nnsc1C(=O)N1CCC(c2nnc(-c3ccco3)o2)CC1`: the RP-LC retention time turned out to be 617 s.

`COc1ccc(CNC(=O)c2c(C)sc3ccn(C)c(=O)c23)c(OC)c1` showed an RP-LC retention time of 743 s.

`Cc1ccc(Cl)cc1NC(=O)N1CCC(n2cnc3cccnc32)CC1` displayed an RP-LC retention time of 682 s. To `Cc1cc2c(cc1NC(=O)c1cccs1)n(C)c(=O)n2C` belongs 668 s; to `CCCn1cnc2cc(CNC(=O)c3cnccn3)ccc21`, 578 s. The compound `Cc1nc2cc(C(=O)N3CCOCC3)ccc2n(C)c1=O` registered an RP-LC retention time of 596 s. On to `CCC(=O)N1CCc2cc(C(=O)N3CCN(C(=O)c4ccco4)CC3)ccc21`, for which the RP-LC retention time was determined as 662 s.

On to `CCCS(=O)(=O)N1CCCN(C2=NS(=O)(=O)C(c3cccc(Cl)c3)=C2C)CC1`, for which the RP-LC retention time was 891 s. With `O=C(c1ccc(Cl)cc1)N(CC1CCOC1)C1CC1` (stereo not given), the RP-LC retention time is 791 s. `Cc1nc(NS(=O)(=O)CCOc2ccc(F)cc2)sc1C` had an RP-LC retention time of 710 s.
